Results taken from article PMC5634495 (Scientific Reports, 2017).

Key:
[1] = system: locomotor activity of mice; details: mouse, in vivo
[2] = biological target: α4β2 nAChR (Homo sapiens, UniProt P17787+P43681); test: cell-based
[3] = system: nAChR-mediated pharyngeal pumping in C. elegans (nAChR EAT-2); parameters: species or system Caenorhabditis elegans; details: in vivo
[4] = biological target: T1, acetylcholine binding protein derived from Lymnaea stagnalis (L-AChBP) (Lymnaea stagnalis, UniProt P58154 20-229); test: SPR; details: both partners purified
T1 construct: also called Synthetic Lymnaea stagnalis AChBP
T1 sequence (P58154 20-229): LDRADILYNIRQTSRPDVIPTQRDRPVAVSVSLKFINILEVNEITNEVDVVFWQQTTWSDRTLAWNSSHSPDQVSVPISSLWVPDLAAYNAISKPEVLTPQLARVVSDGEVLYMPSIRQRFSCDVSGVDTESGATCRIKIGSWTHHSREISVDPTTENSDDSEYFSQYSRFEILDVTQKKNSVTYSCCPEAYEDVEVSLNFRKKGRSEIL

α4β2 nAChR, sequence (P43681 29-627 limits assumed): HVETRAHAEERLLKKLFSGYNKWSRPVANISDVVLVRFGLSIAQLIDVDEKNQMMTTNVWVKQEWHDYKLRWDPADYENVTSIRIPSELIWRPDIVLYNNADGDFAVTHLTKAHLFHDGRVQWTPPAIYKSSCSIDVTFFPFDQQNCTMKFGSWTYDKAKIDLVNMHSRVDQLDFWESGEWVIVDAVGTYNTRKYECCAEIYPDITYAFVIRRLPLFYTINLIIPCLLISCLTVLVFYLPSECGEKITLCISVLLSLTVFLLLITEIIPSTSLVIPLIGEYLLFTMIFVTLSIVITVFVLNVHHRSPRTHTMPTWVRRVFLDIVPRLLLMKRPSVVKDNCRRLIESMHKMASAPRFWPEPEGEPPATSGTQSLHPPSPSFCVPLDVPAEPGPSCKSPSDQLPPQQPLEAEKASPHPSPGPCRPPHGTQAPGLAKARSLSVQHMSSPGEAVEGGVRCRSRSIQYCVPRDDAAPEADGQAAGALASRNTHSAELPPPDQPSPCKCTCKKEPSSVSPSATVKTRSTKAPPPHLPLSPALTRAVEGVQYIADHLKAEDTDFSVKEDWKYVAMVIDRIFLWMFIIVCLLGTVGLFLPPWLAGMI
α4β2 nAChR, sequence (P17787 26-502 limits assumed): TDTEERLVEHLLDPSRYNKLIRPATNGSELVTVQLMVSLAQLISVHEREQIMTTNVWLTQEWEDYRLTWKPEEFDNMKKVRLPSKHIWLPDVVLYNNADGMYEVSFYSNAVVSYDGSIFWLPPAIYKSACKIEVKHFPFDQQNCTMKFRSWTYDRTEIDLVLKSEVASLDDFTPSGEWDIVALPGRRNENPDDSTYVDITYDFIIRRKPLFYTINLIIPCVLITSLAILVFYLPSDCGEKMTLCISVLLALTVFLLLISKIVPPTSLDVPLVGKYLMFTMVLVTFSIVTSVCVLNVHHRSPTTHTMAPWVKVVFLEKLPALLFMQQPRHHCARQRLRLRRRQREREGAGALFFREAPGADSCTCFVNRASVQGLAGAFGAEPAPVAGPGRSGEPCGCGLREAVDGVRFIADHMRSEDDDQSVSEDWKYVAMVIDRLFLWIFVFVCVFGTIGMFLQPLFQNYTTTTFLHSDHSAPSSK

Molecule | locomotor activity in novel-environment behaviour test (in words) [1] | IC50 [2] [µM] | average pharyngeal pumping frequency (in words) [3] | worms in which pharyngeal pumping was absent [3] | binding result [4]
CC[C@H](C)[C@H](NC(=O)[C@H](CC(=O)O)NC(=O)[C@H](CS)NC(=O)[C@H](CO)NC(=O)[C@@H](NC(=O)CNC(=O)[C@H](CC(C)C)NC(=O)[C@H](CCCNC(=N)N)NC(=O)[C@H](C)NC(=O)[C@H](CC(N)=O)NC(=O)[C@H](CCC(=O)O)NC(=O)[C@@H]1CCCN1C(=O)[C@H](CCSC)NC(=O)[C@H](Cc1c[nH]c2ccccc12)NC(=O)[C@@H](NC(=O)[C@@H](NC(=O)[C@@H](N)Cc1ccc(O)cc1)[C@@H](C)O)[C@@H](C)CC)[C@@H](C)O)C(=O)N[C@@H](Cc1ccccc1)C(=O)N[C@H](C(=O)N[C@@H](CC(N)=O)C(=O)N[C@@H](CO)C(=O)N[C@@H](CCCNC(=N)N)C(=O)NCC(=O)N[C@@H](CCCCN)C(=O)N[C@@H](CCCNC(=N)N)C(=O)N[C@@H](C)C(=O)N[C@@H](CO)C(=O)N[C@@H](CCCCN)C(=O)NCC(=O)O)[C@@H](C)O [RV-183A] | increased locomotor activity | 465 to 2620 | significantly reduced | six out of seven | 
CC[C@H](C)[C@H](NC(=O)[C@H](CC(=O)O)NC(=O)[C@H](CS)NC(=O)[C@H](CO)NC(=O)[C@@H](NC(=O)CNC(=O)[C@H](CC(C)C)NC(=O)[C@H](CCCNC(=N)N)NC(=O)[C@@H]1CCCN1C(=O)[C@H](CC(N)=O)NC(=O)[C@H](CCC(=O)O)NC(=O)[C@@H]1CCCN1C(=O)[C@H](CCSC)NC(=O)[C@H](Cc1c[nH]c2ccccc12)NC(=O)[C@@H](NC(=O)[C@@H](NC(=O)[C@@H](N)Cc1ccc(O)cc1)[C@@H](C)O)[C@@H](C)CC)[C@@H](C)O)C(=O)N[C@@H](Cc1ccccc1)C(=O)N[C@H](C(=O)N[C@@H](CC(N)=O)C(=O)N[C@@H](CO)C(=O)N[C@@H](CCCNC(=N)N)C(=O)NCC(=O)N[C@@H](CCCCN)C(=O)N[C@@H](CCCNC(=N)N)C(=O)N[C@@H](C)C(=O)N[C@@H](CO)C(=O)N[C@@H](CCCCN)C(=O)NCC(=O)O)[C@@H](C)O [RV-183P] | increased locomotor activity | 185 to 314 |  |  | 
GSEPKWYRTKDRASPGSNFTITLMGRCNI [Scrambled, reference compound] | No difference |  |  |  | 
YTIWMPENPRLGTSCDIFTNSRGKRASKG [RV-183P] |  |  |  |  | binds
YTIWMPENLRLGTSCDIFTNSRGKRASKG [RV-183L] |  |  |  |  | binds
